EC50 data for 17 compounds are collected here from patent US20150072969A1, “PHENYL ALKANOIC ACID DERIVATIVES AS GPR AGONISTS” (PIRAMAL ENTERPRISES LIMITED, priority 2012, published 2015).

The target of this test is T1, human GPR40 (Homo sapiens, UniProt O14842).
T1 construct: expressed in transfected cells
Description: Inositol phosphate accumulation assay in FFAR1 (GPR40) CHOK1 clone. In kind it is cell-based. The conditions noted are these: GPR40 agonist activity; intracellular inositol phosphate release in CHOK1 cells stably expressing recombinant human GPR40; 1 h incubation at 37° C. How it is done:
The inositol phosphate accumulation assay was performed to characterise the GPR40 agonist activity of the compounds of the present invention.
The assay was carried out in accordance with the method substantially as described in Diabetes, 2008, 57(8):2211-2219 and PLoS One, 2011, 6(11):e27270.
A stable FFAR1 (GPR40) CHOK1 clone was used to determine the GPR40 agonist activity of the test compounds (compounds of the present invention synthesized in the above Examples). The stable FFAR1 (GPR40) CHOK1 clone expressing recombinant human GPR40 was generated according to the procedure described herein below.
Full-length human GPR40 cDNA (Accession Number: NM_005303) was cloned into mammalian expression vector (pReceiver) and was stably transfected into (Chinese Hamster Ovary) CHOK1 cells using Amaxa technology. 2 μg of pReceiver hGPR40 were transfected into 1×10^6 CHOK1 cells in 6 well plates. The cells were split into three 100 mm cell culture plates on the second day and geneticin (800 μg/ml) was added to the cell culture on the third day. The selection medium comprising Ham's F-12 K supplemented with FBS (10%) and geneticin (800 μg/ml) was changed every three days until colonies were formed. The colonies isolated were further purified (single cell cloning) after 14 days to obtain pure isogenic single cell homogenous population of cells expressing the GPR40 receptor protein on the cell surface. GPR40 receptor expression on cell surface was measured by flow cytometry. The in-house transgenic cell line (clone) created was labeled as FFAR1 (GPR40) CHOK1 clone.
FFAR1 (GPR40) CHOK1 cells were suspended in culture medium comprising Ham's F-12 K supplemented with FBS (10%) and geneticin (800 μg/ml). Cells were seeded at a density of 2×10^4 cells per well in a 384 well tissue culture plate and cultured overnight. The medium was discarded and the cells were further resuspended in a stimulation buffer comprising HEPES (10 mM), glucose (5.5 mM), CaCl2 (1 mM), NaCl (150 mM), KCl (4.2 mM), MgCl2 (0.5 mM) and LiCl (50 mM) having a pH of 7.6. The test compounds (representative compounds of Formula (I)) 10 mM stock were prepared in DMSO and subsequently log fold dilution of the test compounds were carried out in the stimulation buffer. Various concentrations of the test compounds and the standard DMSO solution were added to each well. The plates were further incubated at 37° C., 5% CO2 incubator for 1 h. The final concentration of the test compounds in the each well varied from 1 μM to 10 μM. The DMSO concentration in the assay was 0.1% or less. After incubation, lysis reagent and anti-Tb conjugate were added to each well. The intracellular Inositol Phosphate release and accumulation in the test compounds were measured by the binding ability of the anti-Tb conjugate with the inositol phosphate inherently produced in each well as compared with the inositol phosphate coupled to dye d2 added externally to each well. The plates were then read using Perkin Elmer (Envision) plate reader and the fluorescence signal was captured. The EC50 values for the test compounds were calculated from the non linear regression sigmoidal curve graphs plotted between the concentrations of the test compounds and the fluorescence intensity.

T1 sequence (O14842 whole entry): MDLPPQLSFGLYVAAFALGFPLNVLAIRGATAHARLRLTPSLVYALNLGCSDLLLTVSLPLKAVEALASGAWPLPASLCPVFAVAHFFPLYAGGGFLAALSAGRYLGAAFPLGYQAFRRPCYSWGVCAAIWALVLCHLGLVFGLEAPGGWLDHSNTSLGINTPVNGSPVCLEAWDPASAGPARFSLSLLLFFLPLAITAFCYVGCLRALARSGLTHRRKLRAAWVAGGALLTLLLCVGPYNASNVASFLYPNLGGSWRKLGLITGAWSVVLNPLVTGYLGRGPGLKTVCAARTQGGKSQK

With `Cc1cc(OCC2(C)COC2)cc(C)c1-c1cccc(COc2ccc(C3(CC(=O)O)COC3)cc2)c1` [Example 51, 2-(3-(4-((2′,6′-Dimethyl-4′-((3-methyloxetan-3-yl)methoxy)-[1,1′-biphenyl]-3-yl)methoxy)phenyl)oxetan-3-yl)acetic acid], the EC50 (usually the concentration at which the effect is half-maximal) was greater than 500 nM.
The figure for `Cc1cc(OCC2CCS(=O)(=O)C2)cc(C)c1-c1cccc(COc2ccc(C3(CC(=O)O)COC3)cc2)c1` (centres unmarked) [Example 53, 2-(3-(4-((4′-((1,1-Dioxidotetrahydrothiophen-3-yl)methoxy)-2′,6′-dimethyl-[1,1′-biphenyl]-3-yl)methoxy)phenyl)oxetan-3-yl)acetic acid] is less than 100 nM; for `CC(C)Sc1ccc(-c2cccc(COc3ccc(C4(CC(=O)O)COC4)cc3)c2)cc1` [Example 89, 2-(3-(4-((4′-(Isopropylthio)-[1,1′-biphenyl]-3-yl)methoxy)phenyl)oxetan-3-yl)acetic acid] it is 100 to 500 nM.
For `O=C(O)CC1(c2ccc(OCc3cccc(-c4ccccc4)c3)c(F)c2)COC1` [Example 12, 2-(3-(4-([1,1′-Biphenyl]-3-ylmethoxy)-3-fluorophenyl)oxetan-3-yl)acetic acid], the EC50 is greater than 500 nM.
As for `Cc1cc(OCC2CCOCC2)cc(C)c1-c1cccc(COc2ccc(C3(CC(=O)O)COC3)cc2)c1` [Example 43, 2-(3-(4-((2′,6′-Dimethyl-4′-((tetrahydro-2H-pyran-4-yl)methoxy)-[1,1′-biphenyl]-3-yl)methoxy)phenyl)oxetan-3-yl)acetic acid], the EC50 is less than 100 nM.
Next, `O=C(O)CC1(c2ccc(OCc3cccc(-c4ccc(OCC5(CO)COC5)cc4Cl)c3)cc2)COC1` [Example 66, 2-(3-(4-((2′-Chloro-4′-((3-(hydroxymethyl)oxetan-3-yl)methoxy)-[1,1′-biphenyl]-3-yl)methoxy)phenyl)oxetan-3-yl)acetic acid]: less than 100 nM.
For the compound `Cc1ccc(C(F)(F)F)cc1COc1ccc(C2(CC(=O)O)COC2)cc1` [Example 24], the EC50 is greater than 500 nM.
The figure for `CC1(C)CCC(C)(C)c2cc(COc3ccc(C4(CC(=O)O)COC4)cc3)ccc21` [Example 18, 2-(3-(4-((5,5,8,8-Tetramethyl-5,6,7,8-tetrahydronaphthalen-2-yl)methoxy)phenyl)oxetan-3-yl)acetic acid] is 100 to 500 nM; for `Cc1cc(OC2CCS(=O)(=O)CC2)cc(C)c1-c1cccc(COc2ccc(C3(CC(=O)O)COC3)cc2)c1` [Example 57, 2-(3-(4-((4′-((1,1-Dioxidotetrahydro-2H-thiopyran-4-yl)oxy)-2′,6′-dimethyl-[1,1′-biphenyl]-3-yl)methoxy)phenyl)oxetan-3-yl)acetic acid] it is 100 to 500 nM.
Turning to `Cc1cc(OCC2CCCO2)cc(C)c1-c1cccc(COc2ccc(C3(CC(=O)O)COC3)cc2)c1` (centres unmarked) [Example 47, 2-(3-(4-((2′,6′-Dimethyl-4′-((tetrahydrofuran-2-yl)methoxy)-[1,1′-biphenyl]-3-yl)methoxy)phenyl)oxetan-3-yl)acetic acid], the EC50 is less than 100 nM.
Regarding `CS(=O)(=O)CCCOc1ccc(-c2cccc(COc3ccc(C4(CC(=O)O)COC4)cc3)c2)c(Cl)c1` [Example 62, 2-(3-(4-((2′-Chloro-4′-(3-(methylsulfonyl)propoxy)-[1,1′-biphenyl]-3-yl)methoxy)phenyl)oxetan-3-yl)acetic acid], the half-maximal effective concentration (EC50) was less than 100 nM.
Take `Cc1cc(OC[C@@H]2CCOC2)cc(C)c1-c1cccc(COc2ccc(C3(CC(=O)O)COC3)cc2)c1` [Example 49, (R)-2-(3-(4-((2′,6′-dimethyl-4′-((tetrahydrofuran-3-yl)methoxy)-[1,1′-biphenyl]-3-yl)methoxy)phenyl)oxetan-3-yl)acetic acid]: the concentration giving a half-maximal response (EC50) was less than 100 nM.
Next, `Cc1cc(OCCCS(C)(=O)=O)cc(C)c1-c1cccc(COc2ccc(C3(CC(=O)O)COC3)cc2)c1` [Example 10, 2-(3-(4-((2′,6′-Dimethyl-4′-(3-(methylsulfonyl)propoxy)-[1,1′-biphenyl]-3-yl)methoxy)phenyl)oxetan-3-yl)acetic acid]: less than 100 nM.
Consider `Cc1cc(OCCCS(C)(=O)=O)ccc1-c1cccc(COc2ccc(C3(CC(=O)O)COC3)cc2)c1` [Example 77, 2-(3-(4-((2′-Methyl-4′-(3-(methylsulfonyl)propoxy)-[1,1′-biphenyl]-3-yl)methoxy)phenyl)oxetan-3-yl)acetic acid], for which the EC50 is less than 100 nM.
The figure for `O=C(O)CC1(c2ccc(OCc3cccc(-c4ccc(OCC5CCC5)cc4)c3)cc2)COC1` [Example 75, 2-(3-(4-((4′-(Cyclobutylmethoxy)-[1,1′-biphenyl]-3-yl)methoxy)phenyl)oxetan-3-yl)acetic acid] is greater than 500 nM.
Next, `CCCCSc1ccc(-c2cccc(COc3ccc(C4(CC(=O)O)COC4)cc3)c2)cc1` [Example 85, 2-(3-(4-((4′-(Butylthio)-[1,1′-biphenyl]-3-yl)methoxy)phenyl)oxetan-3-yl)acetic acid]: greater than 500 nM; `Cc1cc(OCC2CCS(=O)(=O)CC2)cc(C)c1-c1cccc(COc2ccc(C3(CC(=O)O)COC3)cc2)c1` [Example 45, 2-(3-(4-((4′-((1,1-Dioxidotetrahydro-2H-thiopyran-4-yl)methoxy)-2′,6′-dimethyl-[1,1′-biphenyl]-3-yl)methoxy)phenyl)oxetan-3-yl)acetic acid]: less than 100 nM.
